Where a SMILES comes first, the peptide text is derived from it. Bridges are numbered along the chain shown (N, C = ends). [ ]: non-standard residue; d: D form.
Biological target: T1, mouse melanocortin 4 receptor (MC4R) (Mus musculus, UniProt P56450)
T1 construct: expressed in transfected cells; host or cells: HEK293 / HEK293T, transient transfection
Experiment: cAMP second messenger quantification assay (Cisbio HTRF cAMP Gs kit)
Assay type: cell-based
Conditions: for Emax: HEK293, read-out: efficacy cAMP Emax ± SD
Protocol: Figure 3 Functional cAMP assay of synthesized peptide analogues targeting MC4R. The accumulation of adenylyl cyclase-catalyzed cAMP of (A) tachylplesin-1-like peptides (Ta1LPs, green), (B) protegrin-4-like peptides ([…], pink), (C) arenicin-3-like peptides (Ar3LPs, orange), and (D) gomesin-like peptides (GoLPs, blue) was measured in HEK293 cells transiently expressing mouse melanocortin 4 receptor (MC4R). […] Data are from three independent experiments and are shown as mean ± SEM.
Assays were performed on cells transiently expressing mouse MC4R-EGFP. BamHI and SacI restriction sites were used to clone mouse MC4R N-terminally into a pEGFP-N1 vector. Peptide ligands were assayed for […] in a 384-well format and triplicate according to the Cisbio protocol. Briefly, 5 μL containing 10,000 cells per well was incubated with 5 μL of peptide solutions prepared 2× in 1× stimulation buffer. Following an incubation of peptide ligands at 37 °C for 30 min, d2-labeled cAMP and cryptate-labeled antibody (5 μL of each) were added to the mixture and further incubated for at least 1 h at room temperature. Subsequently, cAMP levels were quantified on a Flexstation 3 (Molecular Devices, San Jose, USA) using homogeneous time-resolved fluorescence resonance energy transfer and the ratio 665/620 nm. Samples were measured in technical triplicates.
Data analysis was performed with GraphPad Prism (GraphPad Software, San Diego). The potency (EC50) and maximum efficacy (Emax) values of peptide ligands were derived from functional data fitted to three- or four-parameter nonlinear regression curves constrained to a bottom of zero.

T1 sequence (P56450 whole entry): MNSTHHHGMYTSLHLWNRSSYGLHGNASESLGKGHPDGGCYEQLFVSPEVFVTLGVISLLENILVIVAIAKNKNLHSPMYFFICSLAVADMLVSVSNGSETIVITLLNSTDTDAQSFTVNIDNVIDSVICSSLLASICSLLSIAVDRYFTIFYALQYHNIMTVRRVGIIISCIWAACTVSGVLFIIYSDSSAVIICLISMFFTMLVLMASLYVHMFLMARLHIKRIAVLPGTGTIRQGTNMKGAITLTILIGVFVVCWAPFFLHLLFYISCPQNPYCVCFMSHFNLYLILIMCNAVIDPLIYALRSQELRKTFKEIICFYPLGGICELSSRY

CC(C)[C@@H]1NC(=O)[C@H](Cc2ccc(O)cc2)NC(=O)[C@H](Cc2c[nH]c3ccccc23)NC(=O)[C@@H](NC(=O)[C@H](Cc2ccccc2)NC(=O)CN)CSSC[C@@H](C(=O)N[C@@H](CC(N)=O)C(N)=O)NC(=O)[C@H](CCCNC(=N)N)NC(=O)[C@H](CCCNC(=N)N)NC(=O)[C@H](Cc2ccc(O)cc2)NC(=O)[C@@H]2CSSC[C@H](NC1=O)C(=O)N1CCC[C@H]1C(=O)N[C@@H](Cc1c[nH]cn1)C(=O)N[C@H](Cc1ccccc1)C(=O)N[C@@H](Cc1c[nH]cn1)C(=O)N[C@@H](Cc1c[nH]c3ccccc13)C(=O)N2 [Ar3LP1] (H-GFCWYVCPH[dF]HWCYRRCN-NH2; disulfide 3-17, 7-13)
EC50: 1 nM
Emax: 98 ± 4%

CC(C)C[C@H](NC(=O)[C@H](CCCNC(=N)N)NC(=O)CNC(=O)CNC(=O)[C@@H](N)CCCNC(=N)N)C(=O)N[C@H]1CSSC[C@@H](C(=O)N[C@H](C(=O)NCC(=O)N[C@@H](CCCNC(=N)N)C(N)=O)C(C)C)NC(=O)[C@H](Cc2ccccc2)NC(=O)[C@@H]2CSSC[C@H](NC(=O)[C@H](Cc3ccc(O)cc3)NC1=O)C(=O)N1CCC[C@H]1C(=O)N[C@@H](Cc1c[nH]cn1)C(=O)N[C@H](Cc1ccccc1)C(=O)N[C@@H](Cc1c[nH]cn1)C(=O)N[C@@H](Cc1c[nH]c3ccccc13)C(=O)N2 [Pr4LP1] (H-RGGRLCYCPH[dF]HWCFCVGR-NH2; disulfide 6-16, 8-14)
EC50: 3.98 nM
Emax: 96 ± 3%
